Molecules are shown by their SMILES.

Take `O=C(Cc1noc2ccccc12)NS(=O)(=O)c1ccc(Cl)cc1`: the melting point (usually the temperature of the solid-liquid transition) was in the range of 209 to 211 °C. With `COc1ccc(-c2nn(Cc3ccccc3)c(=O)cc2-c2ccncc2)cc1`, the melting point is 154 to 155 °C.

On to `ON=C1CCc2cc(F)ccc21`, for which the melting point was in the range of 150 to 155 °C. For `NNC(=O)c1ccc2occ(-c3cccc(OC(F)(F)F)c3)c2c1` the value was 137 to 138 °C; for `CC(C)(C)OC(=O)N[C@H]1CCc2cc(-c3ccccc3)ccc2NC1=O`, 198 to 200 °C. For `COc1cc2c(cc1Cl)C(O)Cc1ccccc1S2` (centres undefined) the value was 130 to 132 °C; for `O=C1Nc2cccnc2N(C(=O)CN2CCN(CCO)CC2)c2ccccc21`, 197 to 200 °C; for `CN1c2ccccc2CN(C(=O)c2ccc(-c3ccccc3)cc2)c2ccccc21`, 198 to 201 °C. Under `CCc1cc(CCCOc2c(C)cc(-c3noc(C(F)(F)F)n3)cc2C)on1` stands 157 to 158 °C; under `Cc1nn(-c2ccc(C(F)(F)F)cn2)cc1CO`, 157 to 158 °C; under `CNC(=O)Cc1c(-c2ccccc2)nc2n(C)c3ccc(C)cc3n12`, 251 to 253 °C. The compound `C=CCOc1nc(Cl)nc2nc[nH]c12` showed a melting point of 208 to 209 °C. With `Cc1cc(C)c2c(c1C)O[C@@H](C)[C@H]2c1ccc(C(C)C)cc1` (relative stereo), the melting point was in the range of 79 to 80 °C.

Compound `CC1(C)C=C(C(=O)O)CC1` returned a melting point of 67 to 69 °C. Under `OC(Nc1cccc(C(F)(F)F)c1)c1cccnc1` (centres undefined) stands 102 °C; under `Cc1nc2ccccn2c(=O)c1CCN1CCC(c2noc3cc(F)ccc23)CC1`, 170 °C; under `O=Cc1ccccc1C(=O)c1ccc(Br)cc1`, 103 to 109 °C. For `COc1ccc2cc(I)sc2c1` the value was 75 to 77 °C; for `CC1CCCN(c2ccc(Cl)cc2C(C)C(C(N)=O)c2ccc(C(=O)O)cc2)C1` (centres undefined), 208 to 210 °C. Under `CC1(C)CCCN(C(=O)[C@H]2C[C@H](C(=O)O)[C@@H](c3ccccc3F)N2C(=O)CNC(=O)Nc2cccc(CC(=O)O)c2)C1` (racemic) stands 173 °C. For `CCOC(=O)c1[nH]c2sc(Cl)cc2c1Cl`, the melting point lay in the range of 166 to 167 °C. For `O=c1ccc(=O)c2c(=O)c3ccccc3c(=O)c1=2` the value was 211 to 213 °C. For the compound `CCn1c(=O)n(OCc2ccccc2)c(=O)c2cc(F)c(Cl)nc21`, the melting point was in the range of 156 to 157 °C. In the case of `CC(=O)Nc1ccc2oc3c(OC(F)F)ccc(C(=O)Nc4c(Cl)cncc4Cl)c3c2c1`, the melting point amounted to 234 °C. For `COc1nc(NC(=O)NS(=O)(=O)c2ccccc2S(C)(=O)=O)nc(N(C)C)n1` the value was 192 to 195 °C; for `NCC1CCn2c(cc3ccccc32)C1` (centres undefined), 85 to 90 °C; for `Nc1ccc(Oc2ccc(Cl)c(Cl)c2)nc1`, 78 to 79.3 °C. The compound `O=C(CC(=O)c1cccc(C(F)(F)F)c1NC(=O)C(F)F)Nc1nccs1` showed a melting point of 206 °C. With `O=C1NC(=O)C(=Cc2ccc(OCCCN3Cc4ccccc4C3=O)cc2)S1`, the melting point lay within 260 to 263 °C.

In turn, `CC(C)(C)C(Cl)=NNc1cc(Cl)c(Cl)cc1[N+](=O)[O-]` returned a melting point of 99 to 100 °C. `N#CC(CC(=O)c1ccc(C(F)(F)F)cc1)C1CC1` (centres undefined) gave a melting point of 91 to 93 °C. For `Cc1scc2c1N(C(=O)NCCN1CCC(CCCN(C)C)CC1)c1ccccc1NC2=O` the value was above 300 °C; for `CNc1ncnc2c1ncn2Cc1c(Cl)cccc1Cl`, 219 to 220 °C; for `CCCCn1c(S)nnc1C(=O)O`, 108 to 110 °C. For `CC(=O)Nc1cc(N2CCN(C(=O)OC(C)(C)C)CC2)ccc1S(=O)(=O)c1ccccc1` the value was 129 to 130 °C. `O=c1[nH]c2ccccc2n1CCCCN1CCC(O)(c2ccc(Cl)cc2)CC1` yielded a melting point of 161 °C. For the compound `COC(=O)c1ccc(Br)cc1OC(=S)N(C)C`, the melting point worked out at 118 °C. Turning to `CCOC(=O)C1=C(C)NC(C)=C(C(=O)OCCN)C1c1cccc([N+](=O)[O-])c1` (centres undefined), the melting point was 137 to 139 °C. Under `Cn1c(-c2n[nH]c(=O)[nH]2)nc2ccccc21` stands 293 to 296 °C; under `Cc1c(Cl)c(Cl)c(SC(F)(F)F)c(Cl)c1Cl`, 49.5 to 50.5 °C; under `CC1(C)CCC(=O)N(C2c3cc4nonc4cc3OC(C)(C)C2O)C1` (centres undefined), 136 to 137 °C. For `O=C(O)CS(=O)(=O)CCCCCn1nc(-c2ccccc2)c(-c2ccccc2)c1-c1ccccc1` the value was 200 °C; for `COc1ccc(N2CCOCC2)c2sc(NC(=O)N(C)[C@H]3CC[C@@H](OC)CC3)nc12`, 198 to 200 °C; for `COc1cc(COc2nn(-c3ccccc3)cc2/C=C/C(=O)O)ccc1OCc1nc(-c2ccccc2)oc1C`, 188 to 189 °C. Under `COc1cc(Nc2nccc(-c3sc(N)nc3C)n2)cc(OC)c1` stands 269 to 271 °C; under `C/C(=C\C=C\Cn1oc(=O)[nH]c1=O)c1cccc(OCc2nc(-c3ccccc3)oc2C)c1`, 117 to 118 °C.

`O=C(CCCc1ccccc1)c1c(O)c2cccnc2n(-c2ccccc2)c1=O` returned a melting point of 200 to 202 °C. Compound `COC(=O)c1cccc(-c2ccoc2C(F)F)c1` yielded a melting point of 55 to 56 °C.

`COc1ccc(C)cc1NC(=O)Nc1ccc(N2CCN(C(=O)Nc3cc(OCCO)ccc3Cl)CC2)nc1` gave a melting point of 132 to 134 °C. Under `CCc1nc(C)c(C(=O)OC(C)OC(=O)C(C)(C)OC)n1Cc1ccc2oc(-c3ccccc3-c3nnn[nH]3)c(Br)c2c1` (centres undefined) stands 135 to 140 °C; under `O=C(O)COc1cscc1Cl`, 123 °C. Compound `O=C1c2ccc(Cl)cc2C(=O)N1CC(=O)N1c2ccccc2N(Cc2ccccc2)C(=O)[C@H]2CCC[C@H]21` (relative stereo) had a melting point of 237 to 238 °C. Compound `CCOC(=O)c1nc(NC)sc1-c1ccncc1` displayed a melting point of 136 to 138 °C. For `CC(C)NC[C@H](O)COc1ccc(OCc2ccccc2)cc1` the value was 93 to 95 °C; for `COc1cc(N)ccc1C(=O)NC1(C)CCN(CCCOc2ccc(F)cc2)CC1`, 75.5 °C. Under `CCOC(=O)C(Cc1ccccc1[N+](=O)[O-])(NC=O)C(=O)OCC` stands 129 to 132 °C; under `O=C(C=C(c1cc(Cl)cc(Cl)c1)C(F)(F)F)c1ccc(C(=O)Nc2ncc(Cl)cn2)cc1`, 71 to 76 °C; under `CC(C)(C)OC(=O)NCC1CCN(CC2(C(=O)O)CCC2)CC1`, 160 °C. For `CC(C)(C)c1ccc(Cn2ccc3cc(Br)ccc32)cc1` the value was 108 to 109 °C; for `COC(=O)c1ccc(OCC2CC(=O)N(c3ccc(O)cc3)C2)cc1` (centres undefined), 141 to 144 °C; for `CN(C)Cc1ccc(CSCCNC(=NC(=O)CNN2C(=O)c3ccccc3C2=O)N(C)N=Cc2ccccc2)o1`, 115 °C. Take `CCN1C(=O)Cc2cc(Cl)cnc21`: the melting point is 78 to 82 °C. Under `Cc1cccc(C)c1N(CCCC(=O)NCC(=O)O)C(=O)c1ccc(Cl)cc1` stands 141 to 142 °C; under `CCCC/C=C\CCCCOc1cccc(C(N)=O)c1`, 98 to 100 °C. Under `CC(=O)N1CCCC2(Cc3ccc(Br)cc3)C(=O)N(c3cc(Cl)nc(Cl)c3)C(=O)N12` (centres undefined) stands 91 °C. Under `CC(C)(C)OC(=O)Nc1cc(OC(C)(C)C)c(-c2ccccc2F)cc1N` stands 130 °C. Compound `CCOC(=O)C1=Cc2cc(OCC(=O)c3ccc(Br)cc3)ccc2OC1C(F)(F)F` (centres undefined) gave a melting point of 130 to 132 °C. For `O=C1Nc2cccc(-c3ccc(Cl)cc3Cl)c2/C1=C/c1ccc[nH]1` the value was 185 to 187 °C; for `COc1ccc(C2=NN(C3CCN(S(=O)(=O)c4cccc5c(N(C)C)cccc45)CC3)C(=O)[C@@H]3CC=CC[C@H]23)cc1OC`, 198 to 200 °C.

With `CC(C)(CCc1noc(=O)[nH]1)c1ccc(C(=O)Nc2cn3cc(C(F)(F)F)ccc3n2)cc1`, the melting point was in the range of 268 to 270 °C. For the compound `N#Cc1ccccc1-c1ccc(CO)cn1`, the melting point was in the range of 152 to 153 °C. For `O=C1COc2ccc([N+](=O)[O-])cc2N1` the value was 221 to 223 °C.

With `NCC(=O)NCC(=O)Nc1ccc([N+](=O)[O-])cc1C(=O)c1ccccc1`, the melting point is 121 to 123 °C. For `Nc1ncc(Oc2ccc(Cl)cc2)c(N2CCNCC2)n1` the value was 93 to 95 °C; for `Cc1cc(CC(C)(C)CO)cc(C)c1O`, 133 to 134 °C; for `Cn1c(=O)c2c(ncn2CC(O)CN2CCN(C(=O)c3ccco3)CC2)n(C)c1=O` (centres undefined), 100 °C. Under `CCCCCC1CCc2c(c(F)c(F)c3oc(C)cc23)O1` (centres undefined) stands 61 °C.

`COC(=O)c1cccc2c1CN(c1c(F)cc3c(=O)c(C(=O)O)cn(-c4ccc(F)cc4)c3c1F)C2` came in with a melting point of 283 to 287 °C. In turn, `Cc1ccc2c(c1)c(=O)c(S(C)=O)cn2C` (centres undefined) registered a melting point of 202 to 205 °C.

`O=C(COc1ccc([N+](=O)[O-])cc1)NCc1ccccc1` gave a melting point of 125 to 126 °C. For `CS(=O)(=O)c1cc(Cl)cc(O)c1O` the value was 142 to 145 °C. Under `OC(CCN1CC=C(c2ccc(Cl)cc2)CC1)c1ccc(Cl)cc1Cl` (centres undefined) stands 96 to 98 °C. For `COCc1cc(NC(=O)OC)no1` the value was 90 to 91 °C; for `O=C(O)c1cc2c(n(CC3CCCCC3)c1=O)CCCCCC2`, 162 to 163 °C; for `Nc1ccc(C(=O)c2ncco2)c(Cl)c1`, 92 to 94 °C. The compound `CCCOc1ccc2cc(-c3ccc4c(c3)C=C(C(=O)Nc3ccc(CN(C)C5CCOCC5)cc3)CCS4(=O)=O)oc2c1` gave a melting point of 215 to 216 °C. For `Cn1nccc1NC(=O)N1CCN(c2nc(-c3ccccc3F)cs2)CC1` the value was 156 to 157 °C; for `O=Cc1cc(OCc2ccccc2)c(OCc2ccccc2)cn1`, 104 °C. For `COC(=O)c1ccc(NC(=O)c2cc(C(C)C)c(C(C)C)s2)cc1O` the value was 180 to 181 °C.

(Values after a melting point compilation (Tetko et al.; mined from patent text by program, amines drawn as free bases though some values may be those of a salt).)
